Source: article PMC8695704 (RSC Advances, 2021)

Biological target: T1, recombinant human S-COMT (Homo sapiens, UniProt P21964)
T1 sequence (P21964 1-221 isoform P21964-2): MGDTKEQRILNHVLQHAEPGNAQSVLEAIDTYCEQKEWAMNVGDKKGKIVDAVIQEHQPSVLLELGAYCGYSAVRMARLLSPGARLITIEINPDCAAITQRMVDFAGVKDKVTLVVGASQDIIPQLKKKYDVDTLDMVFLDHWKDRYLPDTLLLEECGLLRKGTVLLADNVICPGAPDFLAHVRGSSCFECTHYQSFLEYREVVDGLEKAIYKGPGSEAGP
Assay: COMT inhibition assay with the fluorescent probe substrate 3-BTD
Type: biochemical
Details: IC50, 3-BTD as substrate

SMILES	IC50 [µM]
O=C(O)[C@H]1O[C@@H](Oc2cc3oc(-c4ccc(O)cc4)cc(=O)c3c(O)c2O)[C@H](O)[C@@H](O)[C@@H]1O [Scutellarin, scutellarin]	0.221 ± 0.032
COc1c(O)cc(O)c2c(=O)cc(-c3ccccc3)oc12 [Wogonin, wogonin]	24.1 ± 4.96
